T1: Solute carrier family 22 member 1 (Homo sapiens, UniProt O15245)
T1 sequence (O15245 whole entry): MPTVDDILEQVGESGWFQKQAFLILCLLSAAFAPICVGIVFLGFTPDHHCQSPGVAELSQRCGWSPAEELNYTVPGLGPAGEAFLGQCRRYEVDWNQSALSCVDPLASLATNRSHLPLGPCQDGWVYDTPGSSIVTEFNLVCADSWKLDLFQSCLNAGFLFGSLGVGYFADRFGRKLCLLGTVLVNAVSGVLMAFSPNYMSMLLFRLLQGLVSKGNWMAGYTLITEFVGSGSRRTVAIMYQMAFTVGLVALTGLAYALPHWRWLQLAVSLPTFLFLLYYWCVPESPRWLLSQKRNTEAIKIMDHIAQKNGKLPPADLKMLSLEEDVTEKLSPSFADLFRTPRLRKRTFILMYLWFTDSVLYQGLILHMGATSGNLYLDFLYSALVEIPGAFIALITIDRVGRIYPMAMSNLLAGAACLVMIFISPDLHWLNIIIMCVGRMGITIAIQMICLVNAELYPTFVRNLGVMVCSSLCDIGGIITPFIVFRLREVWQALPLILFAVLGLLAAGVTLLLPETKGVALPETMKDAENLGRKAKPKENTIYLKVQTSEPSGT


What was measured:
[1] = molecular target: T1, Solute carrier family 22 member 1; assay: TP_TRANSPORTER: inhibition of TEA uptake in OCT1-expressing HeLa cells; type: functional, cell-based
[2] = molecular target: T1, Solute carrier family 22 member 1; assay: TP_TRANSPORTER: inhibition of TEA uptake (TEA: 5 uM, Amantadine: 100 uM) in OCT1-expressing HeLa cells; type: functional, cell-based
[3] = substrate: CC[N+](CC)(CC)CC; assay: cells, lysate or membranes named

Molecule | Ki [1] [µM] | also measured
CC[N+](CC)(CC)CC [TETRYLAMMONIUM] | 161 | 
CNC(=O)c1cccnc1 [NICOTINYL METHYLAMIDE] | 7700 | 
Cc1ncc2n1-c1ccc(Cl)cc1C(c1ccccc1F)=NC2 [MIDAZOLAM] | 3.7 | 
CCN1/C(=C/c2ccc3ccccc3[n+]2CC)C=Cc2ccccc21 | 2.73 | 
Clc1cccc(Cl)c1N=C1NCCN1 [CLONIDINE] | 0.55 | 
CCCC(=O)Nc1ccc(OCC(O)CNC(C)C)c(C(C)=O)c1 (stereo not given) [ACEBUTOLOL] | 95.8 | 
CCCCC[N+](CCCCC)(CCCCC)CCCCC [TETRAPENTYLAMMONIUM] | 7.46 | 
CCN(CC)CCNC(=O)c1ccc(N)cc1 [PROCAINAMIDE] | 73.9 | 
C[C@]12C[C@H](O)[C@H]3[C@@H](CCC4=CC(=O)CC[C@@]43C)[C@@H]1CC[C@@H]2C(=O)CO [CORTICOSTERONE] | 7.02 | 
CC(=O)O[C@H]1C[C@@H]2CC[C@@H]3[C@H](CC[C@@]4(C)[C@H]3C[C@H]([N+]3(C)CCCCC3)[C@@H]4OC(C)=O)[C@@]2(C)C[C@@H]1N1CCCCC1 [VECURONIUM] | 232 | 
C[n+]1ccc(-c2ccccc2)cc1 | 12.3 | 
NC12CC3CC(CC(C3)C1)C2 [AMANTADINE] |  | Activity [2]: inhibitor [(at a rough estimate) 60 % of control]
CN/C(=N/CCSCc1nc[nH]c1C)NC#N [CIMETIDINE] | 166 | 
CNCCCN1c2ccccc2CCc2ccccc21 [DESIPRAMINE] | 5.36 | 
Solute carrier family 22 member 1 (Homo sapiens) (protein) MPTVDDILEQVGESGWFQKQAFLILCLLSAAFAPICVGIVFLGFTPDHHCQSPGVAELSQRCGWSPAEELNYTVPGLGPAGEAFLGQCRRYEVDWNQSALSCVDPLASLATNRSHLPLGPCQDGWVYDTPGSSIVTEFNLVCADSWKLDLFQSCLNAGFLFGSLGVGYFADRFGRKLCLLGTVLVNAVSGVLMAFSPNYMSMLLFRLLQGLVSKGNWMAGYTLITEFVGSGSRRTVAIMYQMAFTVGLVALTGLAYALPHWRWLQLAVSLPTFLFLLYYWCVPESPRWLLSQKRNTEAIKIMDHIAQKNGKLPPADLKMLSLEEDVTEKLSPSFADLFRTPRLRKRTFILMYLWFTDSVLYQGLILHMGATSGNLYLDFLYSALVEIPGAFIALITIDRVGRIYPMAMSNLLAGAACLVMIFISPDLHWLNIIIMCVGRMGITIAIQMICLVNAELYPTFVRNLGVMVCSSLCDIGGIITPFIVFRLREVWQALPLILFAVLGLLAAGVTLLLPETKGVALPETMKDAENLGRKAKPKENTIYLKVQTSEPSGT |  | Km [3]: 229 µM

From ChEMBL document CHEMBL2074317, “Functional characterization of an organic cation transporter (hOCT1) in a transiently transfected human cell line (HeLa)” (J Pharmacol Exp Ther, 1998)
